This note sets out measurements from EP1860442A2, “Neurosteroids as markers for Alzheimer's disease” (Georgetown University, priority 2000, dated 2001).

Experiment [1] deals with MGM-1 cells. Nature of the experiment: β-Amyloid regulation of the alternative pathway: ROS (2,7-DCF fluorescence). The class given is cell-based, human. The conditions noted are these: 50 mM Aβ versus control, p < 0.01. Here is the method:
β-Amyloid Regulation of the Alternative Pathway: MGM-1 cells were plated on 96 well (~5,000 cells/well, for ROS measurements) or 24 well (~15,000 cells/well, for D measurements) plates (Coming Costar, Acton, MA). At the same time, 1mg Ab (Ab (1-42), AnaSpec Inc., San Jose, CA) was dissolved in 0.5 ml serum-free media and incubated at 4C for aggregation. 24 hours later, cells were incubated in DMEM with 10% fetal bovine serum and […] or […] and 10 mM Vitamin E (Sigma, St. Louis, MO). Control samples were incubated in DMEM with 10% FBS. Cells were incubated at 37C and 6% CO2 for at least 12 hours and processed for ROS generation (see below) or D synthesis as described above for the alternative experiments.
Treatment media was removed and the cells were washed with PBS. The fluorescent probe 2,7- dichlorofluorescin diacetate (2,7-DCF, Molecular Probes, Inc., Eugene, OR) was used to measure levels of oxidative stress (48). Cells were incubated with […] 2,7-DCF, fluorescence was measured at 485nm/535nm using the Victor^2 Multilabel Counter (EG&G Wallac, Gaithersburg, MD) and values of cellular fluorescence were obtained.

Experiment [2] relates to MGM-1 cells. Put plainly: β-Amyloid regulation of the alternative pathway: D synthesis. It counts as cell-based, human. To be noted: 50 mM Aβ versus control, p < 0.01. As to the method: Alternative Pathway: To determine the amount ofD synthesized by the alternative pathway cells were treated as previously described (15). In brief, cells were washed and oligodendrocytes and astrocytes were incubated with increasing concentrations of FeSO4 in serum free media, with and without SU 10603 (10 mM); neurons were incubated in serum free media containing 5 mM P plus FeSO4, with and without 10 mM SU 10603. After two hours, cells and media were homogenized and extracted as described above. Extracts were run on C18 TLC plates (Whatman, Clifton, NJ) with a mobile phase of 95% methanol (v/v); radiolabeled standards for P, progesterone, and D were run on each plate, and appropriate steroid fractions were collected for each sample. TLC fractions were extracted with 2 ml diethyl ether (Fluka, New York) and evaporated. TLC extracts were assayed by specific radioimmunoassay (RIA). […]
RIA using antibodies specific for each steroid (ICN Pharmaceuticals, Costa Mesa, CA Mesa) was used to measure P, progesterone and D levels. The data were analyzed using the IBM-PC RIA Data Reduction Program (version 4.1) from Jaffe and Associates (Silver Spring, MD). Levels of β-amyloid species in AD and control brain samples were analyzed using 4G8 (Senetex PLC, Napa, CA), a monoclonal antibody to β-amyloid peptide that recognizes amino acids 17-24. […]

As to “Aβ: β-amyloid peptide Ab (1-42), AnaSpec Inc., aggregated; a component of Alzheimer's disease plaques”, in experiment [1], the “2,7-DCF fluorescence (ROS)” value was “significant increase”. For the same substance, the D levels entry in experiment [2] was “increased D levels significantly over control”.
